Measured values published in patent US6303292A, “Immunoreactive polypeptide compositions” (Chiron Corporation, priority 1998, dated 2001).
Entries after “also recorded” stand apart in the source; their conditions may differ.

System: antibodies in the Q1 and Q3 plasma (patient Q)
Test: ELISA on Q1 and Q3 specific 12-mer peptides reacted with Q1 and Q3 plasma
Format: binding, human
Conditions: for binding of plasma to the peptide versus background binding to a panel of 12 randomly chosen control peptides (Student's Test): Q1/Q3 plasma
Description: Polystyrene plates (Nunc immuno plate maxisorb F96) were coated with streptavidin by incubating overnight at 4° C. with 0.1 ml/well of a 5 μg/ml solution of streptavidin (Sigma Cat. No. S4762) in 0.1 M carbonate buffer at pH 9.6. After removal of the streptavidin solution, the wells were washed four times with a 0.1% solution of Tween 20 in PBS. Nonspecific binding was blocked by incubating each well with 0.2 ml of 2% BSA in PBS for 1 h at 20° C. The wells were again washed four times with PBS/Tween 20. Plates were air-dried and stored at 4° C. until required. The streptavidin in each well was coupled to cleaved peptides by incubation with 100 μl of a 1:100 dilution of cleaved peptide solution with 0.1% BSA in PBS containing 0.1% sodium azide for 1 h at 20° C. After incubation, the plate was washed four times with PBS/Tween 20. Each well was incubated with 100 μl of a suitable dilution of serum (diluted with 2% BSA in PBS containing 0.1% sodium azide) for 1 h at 20° C. or overnight at 4° C. followed by four washes with PBS/Tween 20. Bound antibody was detected by reaction for 1 h at 20° C. in 0.1 ml conjugate. This consisted of 0.25 ml/l (a saturating level) of horseradish peroxidase-labeled goat anti-rabbit IgG (H+L) (Kirkegaard and Perry Labs, Gaithersburg, Md.) in CASS (0.1% sheep serum, 0.1% Tween 20, 0.1% sodium caseinate diluted in 0.1M PBS, pH 7.2). The wells were washed 2 times with PBS/Tween 20 followed by two washes with PBS only. The presence of enzyme was detected by reaction for 45 min at 20° C. with 0.1 ml of a freshly-prepared solution containing 50 mg of ammonium 2,2'azino-bis[3-ethylbenzothiazoline-6-sulphonate (ABTS, Boehringer Mannheim Cat. no. 122661) and 0.03 ml of 35% (w/w) hydrogen peroxide solution in 100 ml of 0.1 M phosphate/0.08 M citrate buffer, pH 4.0. Color development was measured in a Titertek Multiscan MC plate reader in the dual wavelength mode at 405 nm against a reference wavelength of 492 nm.
To examine the effect of the amino acid substitutions observed in the Q1 and Q3 E2 HV domains on antibody binding, we synthesized a Q1 and Q3 specific 12-mer peptide from amino acids 396 to 407 (HVE Q1 or Q3 in FIG. 7B) and separately reacted the Q1 and Q3 plasma with each peptide in an ELISA.

Sequence | binding of plasma to the peptide versus background binding to a panel of 12 randomly chosen control peptides (Student's Test) | Elisa Results on 12-mer Peptides, Mean (Q1 plasma) | Elisa Results on 12-mer Peptides, Mean (Q3 plasma) | reaction of antibodies in patient Q plasma with the peptide in ELISA (Q1 and Q3 plasma, peptides amino acids 396-407)
TAGFVRLFETGP [Q3 peptide, Q3 specific 12-mer peptide from amino acids 396 to 407 of the HCV E2/NS1 HV domain] | not statistically significant | 0.691 | 0.693 | 
TARFAGFFQSGA [Q1 peptide, Q1 specific 12-mer peptide from amino acids 396 to 407 of the HCV E2/NS1 HV domain] | significantly above background binding | 1.158 | 1.022 | reacted with the Q1 peptide; also recorded: developed an antibody response to the Q1 peptide
